According to article PMC10066365, “Nemacol is a small molecule inhibitor of C. elegans vesicular acetylcholine transporter with anthelmintic potential” (Nature Communications, 2023):
Several values for one entry are separate records, joined by “and”; a condition that tells them apart may be missing. Identical values can stand only once. Like-named read-outs stand apart in the source and are kept apart here.

Legend:
[1] = test system: C. elegans; assay: C. elegans motor phenotype scoring on solid media (Punc/jerky-unc, coiled, paralyzed), wild-type young adults; assay type: in vivo, Caenorhabditis elegans; settings: for atypical locomotion (number of animals) / coiled (number of animals) / no phene (number of animals) / paralyzed (number of animals) / any phene: mean % fraction of young adults exhibiting any phenotype (coiled, jerky-Unc or paralyzed) / any phene, mean % fraction of young adults exhibiting any phenotype (coiled, jerky-Unc or paralyzed) / any phene (mean % fraction of young adults exhibiting any phenotype: coiled, jerky-Unc or paralyzed): one hour; for atypical locomotion (number of animals) / coiled (number of animals) / no phene (number of animals) / paralyzed (number of animals): young adults, 20 animals per trial; for any phene: mean % fraction of young adults exhibiting any phenotype (coiled, jerky-Unc or paralyzed) / any phene, mean % fraction of young adults exhibiting any phenotype (coiled, jerky-Unc or paralyzed) / any phene (mean % fraction of young adults exhibiting any phenotype: coiled, jerky-Unc or paralyzed): mean of three biological replicates; for EC50: Caenorhabditis elegans, read-out: C. elegans - motor disruption EC50
[2] = test system: Pristionchus pacificus; assay: Pristionchus pacificus motor disruption dose-response on solid media, 1 h; settings: for EC50: Pristionchus pacificus, 1 h, read-out: P. pacificus motor disruption EC50; for mean % any phene: any phenotype (coiled, jerky-Unc or paralyzed) at one hour; for mean % any phene / mean % any phene (coiled, jerky-Unc or paralyzed): mean of three biological replicates; for rep 1 atypical locomotion / rep 1 coiled / rep 1 no phene / rep 1 paralyzed / rep 2 atypical locomotion / rep 2 coiled / rep 2 no phene / rep 2 paralyzed / rep 3 atypical locomotion / rep 3 coiled / rep 3 no phene / rep 3 paralyzed: count of 20 animals per trial, one hour; for mean % any phene (coiled, jerky-Unc or paralyzed): Pristionchus pacificus young adults
[3] = test system: Dirofilaria immitis microfilariae; assay: Dirofilaria immitis microfilariae immobility assay (DiroImager, 72 h); settings: for % effect (motility), DIROIM MF: Dirofilaria immitis microfilariae
Method in brief: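 About 250 freshly purified microfilariae of the Missouri isolate per well in supplemented RPMI 1640, exposed to compound for 72 h. Motility scored by automated whole-plate optical imaging; medium with 1% DMSO as negative control.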

[4] = test system: Dirofilaria immitis L3/L4; assay: Dirofilaria immitis L3/L4 motility assay (DiroImager, 72 h); settings: Dirofilaria immitis L4
[5] = 3.75uM, single technical replicate
[6] = 15uM, single technical replicate
[7] = 60uM, single technical replicate
[8] = any motor phenotype after 1 h on solid media, ± 95% CI
[9] = 3.75uM, single replicate counts
[10] = 3.75uM, third c14 line of each analog
[11] = 15uM, second c14 line of each analog
[12] = 60uM, first c14 line of each analog
[13] = conc 3.75, observed at one hour

## c1ccc(N2CCN(C3CCCCCCC3)CC2)cc1 [Nemacol-54]
[1]; [5]
  atypical locomotion (number of animals): 7 and 14 and 6 and 3 and 12 and 10
  coiled (number of animals): 0
  no phene (number of animals): 11 and 4 and 14 and 17 and 8 and 10
  paralyzed (number of animals): 2 and 0
[1]; 3.75uM
  any phene: mean % fraction of young adults exhibiting any phenotype (coiled, jerky-Unc or paralyzed): 46.6667%
[1]; [6]
  atypical locomotion (number of animals): 8 and 13 and 15 and 18 and 17
  coiled (number of animals): 2 and 1 and 0
  no phene (number of animals): 0 and 5 and 3
  paralyzed (number of animals): 10 and 6 and 0 and 1
[1]; 15uM
  any phene: mean % fraction of young adults exhibiting any phenotype (coiled, jerky-Unc or paralyzed): 93.3333%
[1]; [7]
  atypical locomotion (number of animals): 2 and 4 and 6 and 5 and 3
  coiled (number of animals): 8 and 7 and 5 and 4 and 9
  no phene (number of animals): 0
  paralyzed (number of animals): 10 and 9 and 8 and 11
[1]; [8]
  EC50: 4 ± 1.1 µM
[2]
  EC50: 52.4 µM
[2]; conc 3.75
  mean % any phene: 0%
  rep 1 atypical locomotion: 0
  rep 1 coiled: 0
  rep 1 no phene: 20
  rep 1 paralyzed: 0
  rep 2 atypical locomotion: 0
  rep 2 coiled: 0
  rep 2 no phene: 20
  rep 2 paralyzed: 0
  rep 3 atypical locomotion: 0
  rep 3 coiled: 0
  rep 3 no phene: 20
  rep 3 paralyzed: 0
[2]; conc 15
  mean % any phene: 0%
  rep 1 atypical locomotion: 0
  rep 1 coiled: 0
  rep 1 no phene: 20
  rep 1 paralyzed: 0
  rep 2 atypical locomotion: 0
  rep 2 coiled: 0
  rep 2 no phene: 20
  rep 2 paralyzed: 0
  rep 3 atypical locomotion: 0
  rep 3 coiled: 0
  rep 3 no phene: 20
  rep 3 paralyzed: 0
[2]; conc 60
  mean % any phene: 92.5%
  rep 1 atypical locomotion: 6 and 10
  rep 1 coiled: 5 and 4
  rep 1 no phene: 5 and 4
  rep 1 paralyzed: 4 and 2
  rep 2 atypical locomotion: 12 and 10
  rep 2 coiled: 5 and 7
  rep 2 no phene: 0
  rep 2 paralyzed: 3
  rep 3 atypical locomotion: 9 and 10
  rep 3 coiled: 8 and 7
  rep 3 no phene: 0
  rep 3 paralyzed: 3
[3]; 0.016 µM
  % effect (motility), DIROIM MF: 0%
[3]; 0.08 µM
  % effect (motility), DIROIM MF: 0%
[3]; 0.4 µM
  % effect (motility), DIROIM MF: 0%
[3]; 2 µM
  % effect (motility), DIROIM MF: 0%
[3]; 10 µM
  % effect (motility), DIROIM MF: 0%
[4]; 10 µM
  % effect (motility), DIROIM L4: 0%
[4]; 50 µM
  % effect (motility), DIROIM L4: 25%

## c1cc(N2CCN(CC3CCC3)CC2)ccn1 [Nemacol-60]
[1]; [5]
  atypical locomotion (number of animals): 0 and 2 and 3
  coiled (number of animals): 0
  no phene (number of animals): 20 and 18 and 17
  paralyzed (number of animals): 0
[1]; 3.75uM
  any phene: mean % fraction of young adults exhibiting any phenotype (coiled, jerky-Unc or paralyzed): 4.167%
[1]; [6]
  atypical locomotion (number of animals): 0 and 10 and 15
  coiled (number of animals): 0
  no phene (number of animals): 20 and 9 and 5
  paralyzed (number of animals): 0 and 1
[1]; 15uM
  any phene: mean % fraction of young adults exhibiting any phenotype (coiled, jerky-Unc or paralyzed): 21.6667%
[1]; [7]
  atypical locomotion (number of animals): 0 and 2 and 4 and 16 and 14
  coiled (number of animals): 0
  no phene (number of animals): 20 and 18 and 16 and 4 and 6
  paralyzed (number of animals): 0
[1]; 60uM
  any phene: mean % fraction of young adults exhibiting any phenotype (coiled, jerky-Unc or paralyzed): 30%
[1]; [8]
  EC50: > 60 µM
[2]; conc 3.75
  mean % any phene: 0%
  rep 1 atypical locomotion: 0
  rep 1 coiled: 0
  rep 1 no phene: 20
  rep 1 paralyzed: 0
  rep 2 atypical locomotion: 0
  rep 2 coiled: 0
  rep 2 no phene: 20
  rep 2 paralyzed: 0
  rep 3 atypical locomotion: 0
  rep 3 coiled: 0
  rep 3 no phene: 20
  rep 3 paralyzed: 0
[2]; conc 15
  mean % any phene: 0%
  rep 1 atypical locomotion: 0
  rep 1 coiled: 0
  rep 1 no phene: 20
  rep 1 paralyzed: 0
  rep 2 atypical locomotion: 0
  rep 2 coiled: 0
  rep 2 no phene: 20
  rep 2 paralyzed: 0
  rep 3 atypical locomotion: 0
  rep 3 coiled: 0
  rep 3 no phene: 20
  rep 3 paralyzed: 0
[2]; conc 60
  mean % any phene: 0%
  rep 1 atypical locomotion: 0
  rep 1 coiled: 0
  rep 1 no phene: 20
  rep 1 paralyzed: 0
  rep 2 atypical locomotion: 0
  rep 2 coiled: 0
  rep 2 no phene: 20
  rep 2 paralyzed: 0
  rep 3 atypical locomotion: 0
  rep 3 coiled: 0
  rep 3 no phene: 20
  rep 3 paralyzed: 0
[3]; 0.016 µM
  % effect (motility), DIROIM MF: 0%
[3]; 0.08 µM
  % effect (motility), DIROIM MF: 0%
[3]; 0.4 µM
  % effect (motility), DIROIM MF: 0%
[3]; 2 µM
  % effect (motility), DIROIM MF: 0%
[3]; 10 µM
  % effect (motility), DIROIM MF: 0%
[4]; 10 µM
  % effect (motility), DIROIM L4: 0%
[4]; 50 µM
  % effect (motility), DIROIM L4: 10%

## O=[N+]([O-])c1ccc(CN2CCN(C3CCCC3)CC2)cc1 [Nemacol-15]
[1]; 3.75uM
  any phene, mean % fraction of young adults exhibiting any phenotype (coiled, jerky-Unc or paralyzed): 0%
[1]; [9]
  atypical locomotion (number of animals): 0
  coiled (number of animals): 0
  no phene (number of animals): 20
  paralyzed (number of animals): 0
[1]; 15uM
  any phene, mean % fraction of young adults exhibiting any phenotype (coiled, jerky-Unc or paralyzed): 2.5%
[1]; 15uM, single replicate counts
  atypical locomotion (number of animals): 0 and 1 and 2
  coiled (number of animals): 0
  no phene (number of animals): 20 and 19 and 18
  paralyzed (number of animals): 0
[1]; 60uM
  any phene, mean % fraction of young adults exhibiting any phenotype (coiled, jerky-Unc or paralyzed): 23.3333%
[1]; 60uM, single replicate counts
  atypical locomotion (number of animals): 2 and 1 and 4 and 5 and 9
  coiled (number of animals): 0
  no phene (number of animals): 18 and 19 and 15 and 14 and 11
  paralyzed (number of animals): 0 and 3 and 2
[1]; [8]
  EC50: > 60 µM
[2]
  EC50: > 60 µM
[3]; 0.016 µM
  % effect (motility), DIROIM MF: 0%
[3]; 0.08 µM
  % effect (motility), DIROIM MF: 0%
[3]; 0.4 µM
  % effect (motility), DIROIM MF: 0%
[3]; 2 µM
  % effect (motility), DIROIM MF: 0%
[3]; 10 µM
  % effect (motility), DIROIM MF: 0%
[4]; 2 µM
  % effect (motility), DIROIM L4: 5%
[4]; 10 µM
  % effect (motility), DIROIM L4: 0%
[4]; 50 µM
  % effect (motility), DIROIM L4: 10%

## Cc1cccc(CN2CCN(c3ccc([N+](=O)[O-])cc3)CC2)c1 [Nemacol-40]
[1]; [10]
  any phene (mean % fraction of young adults exhibiting any phenotype: coiled, jerky-Unc or paralyzed): 5%
[1]; [11]
  any phene (mean % fraction of young adults exhibiting any phenotype: coiled, jerky-Unc or paralyzed): 14.1667%
[1]; [12]
  any phene (mean % fraction of young adults exhibiting any phenotype: coiled, jerky-Unc or paralyzed): 37.5%
[1]; 1 h
  EC50: > 60 µM
[2]; [13]
  mean % any phene (coiled, jerky-Unc or paralyzed): 5%
[2]; conc 15, observed at one hour
  mean % any phene (coiled, jerky-Unc or paralyzed): 4.167%
[2]; conc 60, observed at one hour
  mean % any phene (coiled, jerky-Unc or paralyzed): 11.9444%
[2]
  EC50: > 60 µM
[3]; 0.016 µM
  % effect (motility), DIROIM MF: 0%
[3]; 0.08 µM
  % effect (motility), DIROIM MF: 0%
[3]; 0.4 µM
  % effect (motility), DIROIM MF: 0%
[3]; 2 µM
  % effect (motility), DIROIM MF: 0%
[3]; 10 µM
  % effect (motility), DIROIM MF: 40%
[3]; Dirofilaria immitis, 72 h, read-out: Dirofilaria immitis filariae EC50
  EC50: 10.7 µM
[4]; 2 µM
  % effect (motility), DIROIM L4: 0%
[4]; 10 µM
  % effect (motility), DIROIM L4: 10%
[4]; 50 µM
  % effect (motility), DIROIM L4: 100%

## O=C(C1CCC1)N1CCN(c2ccc(F)cc2)CC1 [Nemacol-18]
[1]; [10]
  any phene (mean % fraction of young adults exhibiting any phenotype: coiled, jerky-Unc or paralyzed): 0%
[1]; [11]
  any phene (mean % fraction of young adults exhibiting any phenotype: coiled, jerky-Unc or paralyzed): 10%
[1]; [12]
  any phene (mean % fraction of young adults exhibiting any phenotype: coiled, jerky-Unc or paralyzed): 27.5%
[1]; 1 h
  EC50: > 60 µM
[2]; [13]
  mean % any phene (coiled, jerky-Unc or paralyzed): 3.333%
[2]; conc 15, observed at one hour
  mean % any phene (coiled, jerky-Unc or paralyzed): 3.333%
[2]; conc 60, observed at one hour
  mean % any phene (coiled, jerky-Unc or paralyzed): 15.8333%
[2]
  EC50: > 60 µM
[2]; conc 3.75
  rep 1 atypical locomotion: 0
  rep 1 coiled: 0
  rep 1 no phene: 20
  rep 1 paralyzed: 0
  rep 2 atypical locomotion: 0
  rep 2 coiled: 0
  rep 2 no phene: 20
  rep 2 paralyzed: 0
  rep 3 atypical locomotion: 0
  rep 3 coiled: 0
  rep 3 no phene: 19
  rep 3 paralyzed: 1
[3]; 0.016 µM
  % effect (motility), DIROIM MF: 0%
[3]; 0.08 µM
  % effect (motility), DIROIM MF: 0%
[3]; 0.4 µM
  % effect (motility), DIROIM MF: 0%
[3]; 2 µM
  % effect (motility), DIROIM MF: 0%
[3]; 10 µM
  % effect (motility), DIROIM MF: 0%
[4]; 2 µM
  % effect (motility), DIROIM L4: 5%
[4]; 10 µM
  % effect (motility), DIROIM L4: 0%
[4]; 50 µM
  % effect (motility), DIROIM L4: 10%
